± gives the standard deviation of the averaged measurements.
Assays:
[1] = tested on: Homo sapiens (human subject panel, olfactory perception); assay: perceived odor pleasantness rating (rating 0-100); higher = more pleasant
Summary of the method: (§1)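 55 healthy human subjects (aged 18–50; six lowest performers excluded) sniffed 1 mL of each molecule diluted in paraffin oil, at high and low concentrations, in randomized order across ten visits of 100 stimuli. Subjects who reported smelling the stimulus rated it on a computerized slider starting at 50, which had to be moved; positions were converted to a 0–100 scale. Familiarity, intensity and pleasantness ratings are averages over subjects.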

[2] = tested on: Homo sapiens (human subject panel, olfactory perception); assay: perceived odor intensity rating (rating 0-100); higher = stronger perceived smell
Summary of the method: as §1

[3] = tested on: Homo sapiens (human subject panel, olfactory perception); assay: perceived odor familiarity rating (rating 0-100); higher = more familiar
Summary of the method: as §1

[4] = odor dilution in paraffin oil: 1/1,000
[5] = odor dilution in paraffin oil: 1/100,000
[6] = odor dilution in paraffin oil: 1/10,000,000
[7] = odor dilution in paraffin oil: 1/10

| SMILES | perceived odor pleasantness rating [1, 4] | perceived odor pleasantness rating [1, 5] | perceived odor intensity rating [2, 4] | perceived odor intensity rating [2, 5] | perceived odor familiarity rating [3, 4] | perceived odor familiarity rating [3, 5] | perceived odor pleasantness rating [1, 6] | perceived odor intensity rating [2, 6] | perceived odor familiarity rating [3, 6] | perceived odor pleasantness rating [1, 7] | perceived odor intensity rating [2, 7] | perceived odor familiarity rating [3, 7] |
| --- | --- | --- | --- | --- | --- | --- | --- | --- | --- | --- | --- | --- |
| CC(C)C=O [Isobutyraldehyde] | 24.3 ± 22 | 27.3 ± 19 | 77.5 ± 24 | 61.6 ± 28 | 43.1 ± 29 | 39 ± 31 | – | – | – | – | – | – |
| CC(C)C(=O)O [Isobutyric acid] | – | 25 ± 20 | – | 56.8 ± 30 | – | 43.5 ± 31 | 49 ± 27 | 22.6 ± 28 | 39.6 ± 26 | – | – | – |
| C/C=C\c1ccc(O)c(OC)c1 [Isoeugenol] | 68.4 ± 26 | 66.9 ± 24 | 81.6 ± 15 | 64.5 ± 23 | 71.4 ± 27 | 60 ± 29 | – | – | – | – | – | – |
| CC=Cc1ccc(OC(=O)Cc2ccccc2)c(OC)c1 [Isoeugenyl phenylacetate] | 56.2 ± 32 | 59.7 ± 26 | 78.7 ± 18 | 42.4 ± 32 | 68 ± 29 | 55.8 ± 30 | – | – | – | – | – | – |
| CC1=CC(=O)CC(C)(C)C1 [Isophorone] | 51.5 ± 25 | 54.3 ± 24 | 60.1 ± 25 | 21.6 ± 24 | 50.2 ± 35 | 40.4 ± 28 | – | – | – | – | – | – |
| C=C(C)OC(C)=O [Isopropenyl acetate] | – | 46.9 ± 24 | – | 27.1 ± 25 | – | 31.1 ± 27 | 45.5 ± 21 | 18.8 ± 26 | 38.2 ± 31 | – | – | – |
| CC(C)O [Isopropyl alcohol] | 41.1 ± 24 | 38.3 ± 18 | 11.8 ± 18 | 21.9 ± 23 | 29.4 ± 29 | 36.5 ± 28 | – | – | – | – | – | – |
| CCCCCCCCCCCCCC(=O)OC(C)C [Isopropyl myristate] | 50.6 ± 23 | – | 20.3 ± 25 | – | 35.2 ± 26 | – | – | – | – | 45.4 ± 21 | 26 ± 27 | 24.4 ± 24 |
| C/C=C/c1ccc2c(c1)OCO2 [Isosafrole] | 59.6 ± 24 | 54.6 ± 18 | 44.7 ± 30 | 14.4 ± 15 | 56.4 ± 30 | 29 ± 28 | – | – | – | – | – | – |
| C[C@H](N)C(=O)O [L-Alanine] | 45.9 ± 20 | – | 14.7 ± 22 | – | 23.8 ± 22 | – | – | – | – | 55.7 ± 28 | 31.9 ± 30 | 40.9 ± 32 |
| N=C(N)NCCC[C@H](N)C(=O)O [L-Arginine] | 44.6 ± 19 | – | 20.4 ± 22 | – | 30.3 ± 24 | – | – | – | – | 47.9 ± 24 | 19.2 ± 25 | 29.4 ± 33 |
| N[C@@H](CS)C(=O)O [L-Cysteine] | 39 ± 23 | – | 33.4 ± 30 | – | 33.8 ± 28 | – | – | – | – | 12.8 ± 20 | 71.7 ± 30 | 46.2 ± 36 |
| N[C@@H](CCC(=O)O)C(=O)O [L-Glutamic acid] | 47.5 ± 26 | – | 29.8 ± 27 | – | 30.3 ± 31 | – | – | – | – | 37.1 ± 23 | 52.7 ± 31 | 34.7 ± 30 |
| NC(=O)CC[C@H](N)C(=O)O [L-Glutamine] | 51.7 ± 21 | 49.6 ± 27 | 29.1 ± 28 | 19 ± 27 | 32.6 ± 26 | 35.8 ± 30 | – | – | – | – | – | – |
| N[C@@H](Cc1c[nH]cn1)C(=O)O [L-Histidine] | 44.3 ± 26 | – | 19.9 ± 24 | – | 28.5 ± 28 | – | – | – | – | 34.6 ± 26 | 53.2 ± 34 | 44.2 ± 29 |
| CC(C)C[C@H](N)C(=O)O [L-Leucine] | 46.4 ± 27 | – | 46.9 ± 29 | – | 42.9 ± 31 | – | – | – | – | 22.9 ± 26 | 70.9 ± 27 | 45.5 ± 31 |
| NCCCC[C@H](N)C(=O)O [L-Lysine] | 27.4 ± 22 | – | 59.1 ± 30 | – | 48.9 ± 31 | – | – | – | – | 18.5 ± 24 | 81.7 ± 22 | 45.4 ± 34 |

From the supplement of paper PMC4977894
